According to US9458203B2, “Integrin-blocking polypeptides and uses thereof” (priority 2011, dated 2016):
“And” between values parts separate entries of the source, which are not always exact repeats. Identical values can stand only once. Like-named read-outs stand apart in the source and are kept apart here. Ends that are not written are not given here.

How the values were obtained:
[1] = assay type: in vivo, nude mice; details: mouse, in vivo
From the text: (§1) The total medication period was 14 days.

[2] = tested on: human testicular cancer 5637; assay type: in vivo, nude mice; details: for toxic and side effects, in words: mouse, in vivo
From the text: as §1

sarcoma HT-1080 = assay type: in vivo, nude mice; details: for body weight of animals, in words / toxic and side effects, in words / final weight: mouse, in vivo
From the text: as §1

human colon cancer HT-29 = assay type: in vivo, nude mice
Method: (§2) Taking a certain amount of vigorously growing tumor tissue, grinding the tumor tissue under sterile conditions and preparing cell suspension at the concentration of 1×10^7 cells/ml; then hypodermicaly inoculating 0.1 ml of the cell suspension into the right axillary region of nude mice. Keeping measuring the diameter of the transplanted tumor with a vernier caliper, and randomly dividing the mice into groups when the volume of the tumor reached 100-200 mm^3. […] Measuring the tumor diameter once every other day and recording the body weight of mice simultaneously. Intravenously injecting polypeptides to mice from test groups while administering equal quantity of physiological saline to mice from the negative control group. The total medication period was 14 days. Avastin was adopted to set up a positive control group; it was administered through the tail vein once every three days while all other drugs were administered through the tail vein once a day. Leaving mice for a one-week rest after 14 days' medication, then (21 days after medication) killing the mice, surgically dissecting the tumors and measuring the weight of tumors. The tumor volume (TV) was calculated in accordance with the following formula: TV=½×a×b^2

[3] = tested on: human ovarian cancer SK-OV-3; assay type: in vivo, nude mice
Method: as §2

human renal cancer A498 = assay type: in vivo, nude mice
Method: as §2

[4] = tested on: human prostate cancer DU-145; assay type: in vivo, nude mice
Method: as §2

[5] = tested on: human thyroid cancer SW-579; assay type: in vivo, nude mice
Method: as §2

[6] = tested on: human cervical cancer HeLa; assay type: in vivo, nude mice
Method: as §2

melanoma B16F10 = assay: transplanted melanoma B16F10 in C57BL/6 black mice
Method: Hypodermically injecting polypeptides and other drugs into the left axillary region of mice from the experimental groups respectively while administering only equal quantity of physiological saline to the mice from the negative control group. The total medication period was 14 days, during which cyclophosphamide was administered once every other day, taxol once every three days, low-dose polypeptide twice a day and all other drugs once a day.

human lung cancer H460 = details: mouse, in vivo
Method: (§3) Taking a certain amount of vigorously growing tumor tissue, grinding the tumor tissue under sterile conditions and preparing cell suspension at the concentration of 1×10^7 cells/ml; then hypodermicaly inoculating 0.1 ml of the cell suspension into the right axillary region of nude mice. Keeping measuring the diameter of the transplanted tumor with a vernier caliper, and randomly dividing the mice into groups when the volume of the tumor reached 100-200 mm^3. Observing the dynamic effect of integrin-blocking polypeptides on inhibiting the growth of the tumor by means of documenting the change of tumor diameters. Measuring the tumor diameter once every other day and recording the body weight of mice simultaneously. Intravenously injecting polypeptides to mice from test groups while administering equal quantity of physiological saline to mice from the negative control group. The total medication period was 14 days. Avastin was adopted to set up a positive control group; it was administered through the tail vein once every three days while all other drugs were administered through the tail vein once a day. Leaving mice for a one-week rest after 14 days' medication, then (21 days after medication) killing the mice, surgically dissecting the tumors and measuring the weight of tumors. The tumor volume (TV) was calculated in accordance with the following formula: TV=½×a×b^2
(§4) Taxol used in the positive control group was administered once every 3 days through tail vein injection, while drugs of all other groups were administered on daily basis through tail vein injection.

[7] = tested on: human liver cancer SMMC-7721; details: mouse, in vivo
Method: as §3, §4

[8] = tested on: human bladder cancer HT1376; assay: heterotransplanted human bladder cancer HT1376 in nude mice; assay type: in vivo
From the text: as §1

[9] = tested on: human esophageal cancer Ec109; assay type: in vivo, nude mice
From the text: as §1

[10] = tested on: human rectal cancer Colo 320; details: mouse, in vivo
Method: as §3, §4

[11] = tested on: human gastric cancer MGC-803; details: mouse, in vivo
From the text: Keeping measuring the diameter of the transplanted tumor with a vernier caliper, and randomly dividing the mice into groups when the volume of the tumor reached 100-200 mm^3. Observing the dynamic effect of integrin-blocking polypeptides on inhibiting the growth of the tumor by means of documenting the change of tumor diameters. Measuring the tumor diameter once every other day and recording the body weight of mice simultaneously. Intravenously injecting polypeptides to mice from test groups while administering equal quantity of physiological saline to mice from the negative control group. The total medication period was 14 days. Avastin was adopted to set up a positive control group; it was administered through the tail vein once every three days while all other drugs were administered through the tail vein once a day. Leaving mice for a one-week rest after 14 days' medication, then (21 days after medication) killing the mice, surgically dissecting the tumors and measuring the weight of tumors. The tumor volume (TV) was calculated in accordance with the following formula: TV=½×a×b^2

[12] = tested on: human pancreatic cancer SW-1990; assay: heterotransplanted human pancreatic cancer SW-1990 in nude mice; assay type: in vivo
From the text: as §1

[13] = tested on: human endometrial cancer HHUA; details: mouse, in vivo
Method: as §3, §4

[14] = tested on: human laryngeal cancer Hep-2; assay: heterotransplanted human laryngeal cancer Hep-2 in nude mice; assay type: in vivo
From the text: as §1

[15] = tested on: human gallbladder cancer GBC-SD; details: mouse, in vivo
Method: as §3
(§5) Avastin used in the positive control group was administered once every 2 days through tail vein injection, while drugs of all other groups were administered on daily basis through tail vein injection.

[16] = tested on: human breast cancer MDA-MB-231; details: mouse, in vivo
Method: as §3
(§6) wherein a, b refer to the length and width of the tumor respectively.
(§7) The relative tumor volume (RTV) can be calculated in accordance with the results of measurement, using the formula: RTV=Vt/V0, wherein V0 refers to the initial tumor volume measured on the date starting medication (namely d0) while Vt the tumor volume obtained through every measurement. The anti-tumor activity was evaluated by relative proliferation rate T/C (%), which was calculated in accordance with the following formula:
(§8) wherein TRTV refers to the RTV of experimental groups; CRTV refers to the RTV of the negative control group.

human brain tumor SF763 = details: mouse, in vivo
Method: as §3, §4

[17] = tested on: human gallbladder cancer GBC-SD; assay: heterotransplanted human gallbladder cancer GBC-SD in nude mice
Method: as §3, §5

[18] = tested on: human breast cancer MDA-MB-231; assay: heterotransplanted human breast cancer MDA-MB-231 in nude mice; details: 10 mg/kg/time, tail vein once every three days
Method: as §3, §6, §7, §8

[19] = 10 mg/kg/time, once every 3 days, tail vein injection
[20] = 5-FU 10 mg/kg/time, once every 3 days, tail vein injection
[21] = positive control, tail vein once every 3 days
[22] = cisplatin 10 mg/kg/time, once every 3 days, tail vein injection
[23] = 5 mg/kg/time (as printed in Table 29), once every 3 days, tail vein injection
[24] = 10 mg/kg/time, tail vein once every 3 days
[25] = 15 mg/kg/time once every other day, hypodermic, 14 days
[26] = 10 mg/kg/time, once every 2 days, tail vein injection
[27] = avastin 10 mg/kg/time, once every 3 days, tail vein injection

O=c1[nH]cc(F)c(=O)[nH]1 [5-FU, 5-fluorouracil, reference compound]
body weight of animals, in words [1]: greatly reduced the body weight | tumor inhibition rate [2, 19]: 77.80% | tumor weight [2, 19]: 0.28 ± 0.06 g | toxic and side effects, in words [2]: more apparent toxic and side effects | inhibition rate on tumor ([2]; tail vein once every 3 days): 77.80% and 73.84% | tumor inhibition rate (sarcoma HT-1080; [20]): 78.10% | tumor weight (sarcoma HT-1080; [20]): 0.30 ± 0.07 g | body weight of animals, in words (sarcoma HT-1080): greatly reduced the body weight | toxic and side effects, in words (sarcoma HT-1080): more apparent toxic and side effects | inhibition rate on tumor (sarcoma HT-1080; [21]): 78.10%

N.N.[Cl][Pt][Cl] [cisplatin, reference compound]
tumor inhibition rate (human colon cancer HT-29; [19]): 79.17% | tumor weight (human colon cancer HT-29; [19]): 0.30 ± 0.05 g | body weight of animals, in words (human colon cancer HT-29; mouse, in vivo): greatly reduced the body weight | inhibition rate on tumor (human colon cancer HT-29; [21]): 79.17% | tumor inhibition rate [3, 22]: 78.36% | tumor weight [3, 22]: 0.29 ± 0.06 g | body weight of animals, in words ([3]; mouse, in vivo): greatly reduced the body weight | inhibition rate on tumor [3, 21]: 78.36% | tumor inhibition rate (human renal cancer A498; [19]): 79.83% | tumor weight (human renal cancer A498; [19]): 0.25 ± 0.06 g | body weight of animals, in words (human renal cancer A498; mouse, in vivo): greatly reduced the body weight | inhibition rate on tumor (human renal cancer A498; [21]): 79.83% | tumor inhibition rate [4, 23]: 73.84% | tumor weight [4, 23]: 0.37 ± 0.10 g | tumor inhibition rate [4, 19]: 73.84% | tumor weight [4, 19]: 0.37 ± 0.10 g | tumor inhibition rate [4, 24]: 73.84% | tumor weight [4, 24]: 0.37 ± 0.10 g | body weight of animals, in words ([4]; mouse, in vivo): greatly reduced the body weight | tumor inhibition rate [5, 19]: 74.09% | tumor weight [5, 19]: 0.34 ± 0.07 g | body weight of animals, in words ([5]; mouse, in vivo): greatly reduced the body weight | inhibition rate on tumor [5, 21]: 74.09% | tumor inhibition rate [6, 24]: 73.13% | tumor weight [6, 24]: 0.38 ± 0.10 g | body weight of animals, in words ([6]; mouse, in vivo): greatly reduced the body weight

O=P1(N(CCCl)CCCl)NCCCO1 (stereo not shown) [cyclophosphamide]
final weight (melanoma B16F10; [25]): 17.3 ± 1.5 g | tumor inhibition rate (melanoma B16F10; [25]): 64.95% | tumor weight (melanoma B16F10; [25]): 1.40 ± 0.06 g

FQPVLHLVALNSPLSGGMRGIRGADFQCFQQARAVGLAGTFRAGGGGRGD [polypeptide III]
body weight of animals, in words (human lung cancer H460): no significant change in body weight | toxic and side effects, in words (human lung cancer H460): no obvious toxic and side effects | body weight of animals, in words (human colon cancer HT-29; mouse, in vivo): no significant change in body weight | toxic and side effects, in words (human colon cancer HT-29; mouse, in vivo): no obvious toxic and side effects | body weight of animals, in words ([3]; mouse, in vivo): no significant change in body weight | toxic and side effects, in words ([3]; mouse, in vivo): no obvious toxic and side effects | final weight ([3]; mouse, in vivo, 0.1875 mg/kg): 22.83 ± 0.50 g | final weight ([3]; mouse, in vivo, 0.375 mg/kg): 22.92 ± 0.70 g | final weight ([3]; mouse, in vivo, 0.75 mg/kg): 22.95 ± 0.64 g | body weight of animals, in words [7]: no significant change in body weight | toxic and side effects, in words [7]: no obvious toxic and side effects | body weight of animals, in words ([8]; mouse, in vivo): no significant change in body weight | toxic and side effects, in words ([8]; mouse, in vivo): no obvious toxic and side effects | body weight of animals, in words ([9]; mouse, in vivo): no significant change in body weight | toxic and side effects, in words ([9]; mouse, in vivo): no obvious toxic and side effects | body weight of animals, in words [1]: no significant change in body weight | toxic and side effects, in words [2]: no obvious toxic and side effects | body weight of animals, in words (sarcoma HT-1080): no significant change in body weight | toxic and side effects, in words (sarcoma HT-1080): no obvious toxic and side effects | final weight (sarcoma HT-1080; 0.1875 mg/kg): 22.92 ± 0.57 g | final weight (sarcoma HT-1080; 0.375 mg/kg): 23.18 ± 0.57 g | final weight (sarcoma HT-1080; 0.75 mg/kg): 23.07 ± 0.56 g | body weight of animals, in words [10]: no significant change in body weight | toxic and side effects, in words [10]: no obvious toxic and side effects | final weight ([10]; 0.1875 mg/kg): 22.81 ± 0.60 g | final weight ([10]; 0.375 mg/kg): 22.93 ± 0.56 g | final weight ([10]; 0.75 mg/kg): 23.14 ± 0.48 g | body weight of animals, in words (human renal cancer A498; mouse, in vivo): no significant change in body weight | toxic and side effects, in words (human renal cancer A498; mouse, in vivo): no obvious toxic and side effects | body weight of animals, in words [11]: no significant change in body weight | toxic and side effects, in words [11]: no obvious toxic and side effects | body weight of animals, in words ([12]; mouse, in vivo): no significant change in body weight | toxic and side effects, in words ([12]; mouse, in vivo): no obvious toxic and side effects | body weight of animals, in words [13]: no significant change in body weight | toxic and side effects, in words [13]: no obvious toxic and side effects | body weight of animals, in words (melanoma B16F10; mouse, in vivo): no severe weight change | toxic and side effects, in words (melanoma B16F10; mouse, in vivo): no severe weight change or obvious toxic and side effects | body weight of animals, in words ([14]; mouse, in vivo): no significant change in body weight | toxic and side effects, in words ([14]; mouse, in vivo): no obvious toxic and side effects | final weight ([14]; mouse, in vivo, 0.1875 mg/kg): 22.94 ± 0.46 g | final weight ([14]; mouse, in vivo, 0.375 mg/kg): 22.96 ± 0.57 g | final weight ([14]; mouse, in vivo, 0.75 mg/kg): 23.18 ± 0.51 g | body weight of animals, in words [15]: no significant change in body weight | toxic and side effects, in words [15]: no obvious toxic and side effects | body weight of animals, in words [16]: no significant change in body weight | toxic and side effects, in words [16]: no obvious toxic and side effects | body weight of animals, in words ([4]; mouse, in vivo): no significant change in body weight | toxic and side effects, in words ([4]; mouse, in vivo): no obvious toxic and side effects | body weight of animals, in words ([5]; mouse, in vivo): no significant change in body weight | toxic and side effects, in words ([5]; mouse, in vivo): no obvious toxic and side effects | body weight of animals, in words ([6]; mouse, in vivo): no significant change in body weight | toxic and side effects, in words ([6]; mouse, in vivo): no obvious toxic and side effects | body weight of animals, in words (human brain tumor SF763): no significant change in body weight | toxic and side effects, in words (human brain tumor SF763): no obvious toxic and side effects | final weight (human brain tumor SF763; 0.1875 mg/kg): 23.31 ± 0.57 g | final weight (human brain tumor SF763; 0.375 mg/kg): 23.37 ± 0.56 g | final weight (human brain tumor SF763; 0.75 mg/kg): 23.09 ± 0.53 g

avastin: Avastin was adopted to set up a positive control group [reference compound]
tumor inhibition rate [8, 19]: 79.60% | tumor weight [8, 19]: 0.24 ± 0.06 g | body weight of animals, in words ([8]; mouse, in vivo): no significant change | inhibition rate on tumor [8, 21]: 79.60% | tumor inhibition rate [9, 19]: 69.00% | tumor weight [9, 19]: 0.47 ± 0.10 g | body weight of animals, in words ([9]; mouse, in vivo): no significant change | inhibition rate on tumor [9, 21]: 69.00% | tumor inhibition rate [17, 26]: 78.85% | tumor weight [17, 26]: 0.25 ± 0.06 g | inhibition rate on tumor ([17]; positive control, tail vein once every 2 days): 78.85% | tumor inhibition rate [12, 19]: 79.07% | tumor weight [12, 19]: 0.27 ± 0.07 g | body weight of animals, in words ([12]; mouse, in vivo): no significant change | inhibition rate on tumor [12, 21]: 79.07% | tumor inhibition rate [14, 27]: 76.79% | tumor weight [14, 27]: 0.26 ± 0.06 g | body weight of animals, in words ([14]; mouse, in vivo): no significant change | inhibition rate on tumor [14, 21]: 76.79% | body weight of animals, in words [15]: no significant change | body weight of animals, in words [16]: no obvious change | tumor weight [18]: 0.26 ± 0.08 g
